In general, melting point refers to the temperature of the solid-liquid transition.

Structures are written as SMILES. Counter-ions that a name gives are not always drawn.

In the first data set the test system is MCPP-induced Hypolocomotion. Description: Reversal of MCPP-induced hypolocomotion. Format: in vivo. The following applies: po, procedure of WO 94/04533, read-out: ID50 (the source's name). The text has this:
Reversal of MCPP-induced Hypolocomotion
`COc1cc2c(cc1C(F)(F)F)N(C(=O)Nc1ccc(C)c(-c3cccnc3)c1)CC2` [Example 7, 1-[4-Methyl-3-(3-Pyridyl)phenylcarbamoyl]-5-methoxy-6-trifluoromethyl Indoline]: the ED50 lay in the range of 0.5 to 5.5 mg/kg. On the same count and under the same terms, for `COc1cc2c(cc1C(F)(F)F)N(C(=O)Nc1ccc(OCc3ccncc3)cc1)CC2` [Example 54, 5-Methoxy-6-trifluoromethyl-1-[4-(pyridin-4-ylmethyloxy)phenyl Carbamoyl]indoline] the value was 0.5 to 5.5 mg/kg; for `COc1cc2c(cc1C(F)(F)F)N(C(=O)Nc1cc3c(c(-c4cccnc4)c1)OCC3)CC2` [Example 80, 1-[2,3-Dihydro-7-(pyrid-3-yl)benzofuran-5-ylcarbamoyl]-5-methoxy-6-trifluoromethyl Indoline], 0.5 to 5.5 mg/kg; for `COc1cc2c(cc1C(F)(F)F)N(C(=O)Nc1ccc(Cl)c(-c3cccnc3)c1)CC2` [Example 26, 1-(4-Chloro-3-(pyrid-3-yl)phenylcarbamoyl)-5-methoxy-6-trifluoromethylindoline], 0.5 to 5.5 mg/kg. On the same count and under the same terms, under `COc1cc2c(cc1C(F)(F)F)N(C(=O)Nc1cc(F)cc(-c3cncnc3)c1)CC2` [Example 78, 1-[3-Fluoro-5-(pyrimidin-5-yl)phenylcarbamoyl]-5-methoxy-6-trifluoromethyl Indoline] stands 0.5 to 5.5 mg/kg. Still for that read-out and setting: for `COc1cc2c(cc1C(F)(F)F)N(C(=O)Nc1cccc(-c3cccnc3)c1)CC2` [Example 1] the value was 0.5 to 5.5 mg/kg; for `CSc1cc2c(cc1C(F)(F)F)N(C(=O)Nc1cc(F)cc(-c3cccnc3)c1)CC2` [Example 25, 1-(3-Fluoro-5-(pyrid-3-yl)phenylcarbamoyl)5-thiomethyl-6-trifluoromethyl-indoline Hydrochloride], 0.5 to 5.5 mg/kg; for `COc1cc2c(cc1C(F)(F)F)N(C(=O)Nc1cc(F)cc(-c3cccnc3)c1)CC2` [Example 8, 1-[3-Fluoro-5-(3-pyridyl)phenylcarbamoyl]-5-methoxy-6-trifluoromethyl Indoline], 0.5 to 5.5 mg/kg. Take `COc1cc2c(cc1C(F)(F)F)N(C(=O)Nc1ccc(Cl)c(-c3cnccc3C)c1)CC2` [Example 79, 1-(4-Chloro-3-(4-methyl-3-pyridyl)phenylcarbamoyl]-5-methoxy-6-trifluoromethylindoline]: the ED50 lay within 0.5 to 5.5 mg/kg. Take `COc1ccc(NC(=O)N2CCc3cc(OC)c(C(F)(F)F)cc32)cc1-c1cccnc1` [Example 31, 1-[4-Methoxy-3(pyrid-3-yl)phenylcarbamoyl]-5-methoxy-6-trifluoromethylindoline]: the ED50 was 0.5 to 5.5 mg/kg. On to `COc1cc2c(cc1C(F)(F)F)N(C(=O)Nc1cccc(-c3cncnc3)c1)CC2` [Example 40, 1-[3-(5-Pyrimidyl)phenylcarbamoyl]-5-methoxy-6-trifluoromethyl-indoline], for which the ED50 was in the range of 0.5 to 5.5 mg/kg.

Test system in another data set: not given
Experiment: not given
Settings: not given
`COc1cc2c(cc1C(F)(F)F)N(C(=O)Nc1ccc(C)c(-c3cccnc3)c1)CC2` [Example 7, 1-[4-Methyl-3-(3-Pyridyl)phenylcarbamoyl]-5-methoxy-6-trifluoromethyl Indoline]: the melting point is 211 to 212 °C. `COc1cc2c(cc1C(F)(F)F)N(C(=O)Nc1ccc(OCc3ccncc3)cc1)CC2` [Example 54, 5-Methoxy-6-trifluoromethyl-1-[4-(pyridin-4-ylmethyloxy)phenyl Carbamoyl]indoline] showed a melting point of 205 to 207 °C. For `COc1cc2c(cc1C(F)(F)F)N(C(=O)Nc1ccc(Cl)c(-c3cccnc3)c1)CC2` [Example 26, 1-(4-Chloro-3-(pyrid-3-yl)phenylcarbamoyl)-5-methoxy-6-trifluoromethylindoline], the melting point was in the range of 210 to 213 °C. `CSc1cc2c(cc1C(F)(F)F)N(C(=O)Nc1cccc(C(=O)NCCc3ccccn3)c1)CC2` [Example 153] came in with a melting point of 92 to 94 °C. On the same count and under the same terms, under `COc1cc2c(cc1C(F)(F)F)N(C(=O)Nc1cccc(-c3ccc(CN(C)C)cc3)c1)CC2` [Example 98] stands 209 to 211 °C.

`COc1cc2c(cc1C(F)(F)F)N(C(=O)Nc1cc(-c3ccncc3)cc(-c3cccnc3)c1)CC2` [Example 115]: the melting point lay in the range of 153 to 154 °C.

`COc1cc2c(cc1C(F)(F)F)N(C(=O)Nc1cncc(-c3ccc(F)c(Cl)c3)c1)CC2` [Example 93] gave a melting point of 113 to 115 °C. The same measure, in the same setting: under `COc1cc2c(cc1C(F)(F)F)N(C(=O)Nc1cccc(-c3ccc(C)nc3)c1)CC2` [Example 112] stands 228 to 230 °C; under `COc1cc2c(cc1C(F)(F)F)N(C(=O)Nc1ccc(Oc3ccc(C)nc3C)nc1)CC2` [Example 166], 230 to 233 °C; under `COc1cc2c(cc1C(F)(F)F)N(C(=O)Nc1cc(F)cc(-c3cccnn3)c1)CC2` [Example 118], 230 to 231 °C.

Compound `COc1cc2c(cc1C(F)(F)F)N(C(=O)Nc1cccc(-c3cnccn3)c1)CC2` [Example 120] came in with a melting point of 208 to 209 °C. Still for that read-out and setting: under `COc1cc2c(cc1C(F)(F)F)N(C(=O)Nc1cccc(OCc3cccnc3)c1)CC2` [Example 137] stands 202 to 204 °C; under `COc1cc2c(cc1C(F)(F)F)N(C(=O)Nc1cccc(-c3cccnc3)c1)CC2` [Example 83], 192 to 193 °C; under `COc1cc2c(cc1C(F)(F)F)N(C(=O)Nc1cnc(-c3cccnc3)c(C)c1)CC2` [Example 140], 230 to 232 °C.

`CSc1cc2c(cc1C(F)(F)F)N(C(=O)Nc1cccc(C(=O)NCc3ccccn3)c1)CC2` [Example 154] showed a melting point of 116 to 118 °C. In turn, `COc1cc2c(cc1C(F)(F)F)N(C(=O)Nc1ccc(Oc3ccc(C)cc3C)nc1)CC2` [Example 160] came in with a melting point of 236 to 238 °C. On the same count and under the same terms, for `COc1cc2c(cc1C(F)(F)F)N(C(=O)Nc1cccc(-c3noc(C)n3)c1)CC2` [Example 27, 5-Methoxy-1-(5-methyl-(1,2-4-oxadiazol-3-yl)-phenylcarbamoyl)-6-trifluoromethyl Indoline] the value was 203 to 204 °C. For `O=C(Nc1ccc(F)c(-c2cccnc2)c1)N1CCc2cc(Cl)c(Cl)cc21` [Example 135], the melting point fell in the range of 200 to 202 °C. On the same count and under the same terms, for `CSc1cc2c(cc1C(F)(F)F)N(C(=O)Nc1ccc(Sc3ccncc3)nc1)CC2` [Example 145] the value was 214 to 216 °C; for `COc1cc2c(cc1C(F)(F)F)N(C(=O)Nc1cncc(-c3cc(F)cc(F)c3)c1)CC2` [Example 88], 226 to 229 °C; for `COc1cc2c(cc1C(F)(F)F)N(C(=O)Nc1cccc(-c3noc(CN(C)C)n3)c1)CC2` [Example 100], 154 to 155 °C.

With `CSc1cc2c(cc1C(F)(F)F)N(C(=O)Nc1ccc(C(=O)NCc3cccnc3)cc1)CC2` [Example 68, 5-Methylthio-6-trifluoromethyl-1-[4-(pyrid-3-ylmethyl)amido Phenyl Carbamoyl]indoline], the melting point was > 250 °C.

Turning to `CSc1cc2c(cc1C(F)(F)F)N(C(=O)Nc1cccc(C(=O)NCc3cccnc3)c1)CC2` [Example 148], the melting point was in the range of 210 to 215 °C. The same measure, in the same setting: under `Cc1cc2c(cc1Cl)N(C(=O)Nc1ccc(C)c(-c3cccnc3)c1)CC2` [Example 23, 6-Chloro-5-methyl-1-(4-methyl-3-(pyrid-3-yl)-phenylcarbamoyl) Indoline] stands 202 to 203 °C; under `COc1cc2c(cc1C(F)(F)F)N(C(=O)Nc1cncc(-c3ccc[nH]3)c1)CC2` [Example 17, 1-[5-(2-Pyrrolyl)-pyrid-3-yl Carbamoyl]-5-methoxy-6-trifluoromethyl Indoline], 218 to 219 °C; under `COc1cc2c(cc1C(F)(F)F)N(C(=O)Nc1ccc(Sc3ccncc3)nc1)CC2` [Example 146], 204 to 206 °C.

The compound `CSc1cc2c(cc1C(F)(F)F)N(C(=O)Nc1ccc(C(=O)NCc3ccncc3)cc1)CC2` [Example 151] registered a melting point of 138 to 140 °C.

The values above are taken from patent US6638953B2, “Indole derivatives as 5-HT receptor antagonist” (SmithKline Beecham p.l.c., priority 1995, dated 2003).
